Data published in patent US5434150A, “Condensed 5-membered heterocyclic compounds, processes for preparing them and pharmaceutical preparations containing these compounds” (Dr. Karl Thomae GmbH, priority 1991, dated 1995).
Where a name gives a salt, the structure may show the parent alone. Read-outs that look alike come from different tables or passages of the source.

How the values were obtained:
[1] = system: mice; assay: Tolerance after intravenous administration to mice; format: in vivo; conditions: 30 mg/kg intravenous, three mice
[2] = system: platelet aggregation (platelet-rich plasma); assay: Antithrombotic activity: inhibition of collagen-induced platelet aggregation in platelet-rich plasma (Born and Cross); format: cell-based, human (healthy volunteers); conditions: 50% change in optical density, human platelet-rich plasma, 10 min preincubation
Method: 2. Antithrombotic Activity Method The thrombocyte aggregation is measured using the Born and Cross method (J. Physiol. 170:397 (1964)) in platelet-rich plasma taken from healthy volunteers. To inhibit coagulation the blood is mixed with 3.14% sodium citrate in a ratio by volume of 1:10. Collagen-induced aggregation The pattern of the decrease in optical density of the platelet suspension is photometrically measured and recorded after the addition of aggregation-triggering substance. The rate of aggregation is concluded from the angle of inclination of the density curve. The point on the curve where there is maximum light transmittance is used to calculate the optical density. The amount of collagen used is as small as possible but sufficient to produce an irreversible reaction curve. Standard commercial collagen produced by Hormonchemie of Munich is used. Before the addition of the collagen the plasma is incubated for 10 minutes with the substance at […]. From the measurements obtained an EC50 is determined graphically, indicating a 50% change in the optical density in terms of the inhibition of aggregation.

[3] = molecular target: Human Thrombocytes; assay: Fibrinogen binding to human thrombocytes (fibrinogen binding test)
Method: 1. Fibrinogen Binding to Human Thrombocytes The blood obtained by puncturing an antecubital vein is anticoagulated with trisodium citrate (final concentration: 13 mM) and centrifuged for 10 minutes at 170× g. The supernatant platelet-rich plasma is poured onto a Sepharose 2B column (Pharmacia) and eluted with a solution of 90 mM common salt, 14 mM trisodium citrate, 5 mM glucose and 50 mM tris(hydroxymethyl)aminomethane, adjusted to pH 7.4. The gel-filtered platelets (GFP) appearing before the plasma proteins are used for the binding experiments. 50 μl of a 60 mM calcium chloride solution, 50 μl of a 0.6 mM adenosine diphosphate solution, 100 μl of substance solution or solvent and 50 μl of fibrinogen solution (containing 3 μg of ^125 fibrinogen) are added to 750 μl of GFP and incubated for 20 minutes at ambient temperature. The non-specific binding is determined in the presence of 3 mg/ml of cold fibrinogen. 900 μl of the incubated material are carefully pipetted onto 250 μl of silicon oil (AP 38: AR 20, 1:2 v/v, Wacker Chemie) in Eppendorf tubes and centrifuged for 2 minutes at 10,000× g. The aqueous supernatant and some of the oil are drawn off, the tips of the tubes are cut off together with the platelet pellet and the quantity of bound fibrinogen is determined in a gamma counter. The concentration of substance which brings about a 50% inhibition in fibrinogen binding is determined from a series of concentrations and is given as the IC50 value. | *^125 I fibrogen was replaced by […] |e.

[4] = 125I fibrinogen, 50% inhibition of fibrinogen binding, gel-filtered human platelets, ADP, 20 min ambient temperature, read-out: Fibrinogen binding test IC50
[5] = *: 125I fibrinogen replaced by 3H-(3S,5S)-5-[(amidino-biphenylyl)-oxymethyl]-carboxymethyl-pyrrolidinone ligand, read-out: Fibrinogen binding test IC50 (values marked *)

SMILES	deaths after intravenous administration [1]	EC50 [2]	IC50 [3, 4]	IC50 [3, 5]
Cn1c(-c2ccc(C(=N)N)cc2)nc2cc(C(=O)NCCC(=O)O)ccc21 [Example 1(3), 2-(4-amidino-phenyl)-5-[(2-carboxy-ethyl)-aminocarbonyl]-1-methyl-benzimidazole]	no animals died	70 nM	37 nM	
COC(=O)CCNC(=O)c1ccc2c(c1)nc(-c1ccc(C(=N)N)cc1)n2CCCN1CCSCC1 [3(59), 2-(4-amidino-phenyl)-5-[(2-methoxycarbonyl-ethyl)-aminocarbonyl]-1-(3-thiomorpholino-propyl)-benzimidazole]		3800 nM		2000 nM
N=C(N)c1ccc(-c2nc3cc(C(=O)NCCC(=O)O)ccc3n2CCCC(=O)O)cc1 [1(138), 2-(4-amidino-phenyl)-5-[(2-carboxy-ethyl)-aminocarbonyl]-1-(3-carboxy-propyl)-benzimidazole]		3600 nM		1500 nM
NCc1ccc(-c2nc3cc(C(=O)NCCC(=O)O)ccc3n2CCCN2CCSCC2)cc1 [1(137), 2-(4-aminomethyl-phenyl)-5-[(2-carboxy-ethyl)-aminocarbonyl]-1-(3-thiomorpholino-propyl)-benzimidazole]		7000 nM		1800 nM
CNc1cc2c(cc1C(=O)NCCC(=O)O)nc(-c1ccc(C(=N)N)cc1)n2C [1(139), 2-(4-amidino-phenyl)-5-[(2-carboxy-ethyl)-aminocarbonyl]-1-methyl-6-methylamino-benzimidazole]		1500 nM		410 nM
N=C(N)c1ccc(-c2nc3cc(C(=O)NCCC(=O)O)ccc3[nH]2)cc1 [1(2), 2-(4-amidino-phenyl)-5(6)-[(2-carboxy-ethyl)-aminocarbonyl]-benzimidazole-hydrochloride]		3300 nM		720 nM
Cn1c(-c2ccc(C(=N)N)cc2)[n+]([O-])c2cc(C(=O)NCCC(=O)O)ccc21 [1(79), 2-(4-amidino-phenyl)-5-[(2-carboxy-ethyl)-aminocarbonyl]-1-methyl-benzimidazole-3-oxide]		80 nM	41 nM	
COC(=O)CCNC(=O)c1ccc2c(c1)nc(-c1ccc(C(=N)N)cc1)n2CCCN1CC[S+]([O-])CC1 [Example 5, 2-(4-Amidino-phenyl)-5-[(2-methoxycarbonyl-ethyl)-aminocarbonyl]-1-[3-(S-oxido-thiomorpholino)-propyl]-benzimidazole-hydrochloride]		43000 nM		15000 nM
COC(=O)CCNC(=O)c1ccc2c(c1)nc(-c1ccc(CN)cc1)n2CCCN [Example 6, 2-(4-Aminomethyl-phenyl)-1-(3-amino-propyl)-5-[(2-methoxycarbonyl-ethyl)-aminocarbonyl]-benzimidazole]		3700 nM	4000 nM	
N=C(N)c1ccc(-c2nc3cc(NC(=O)CCC(=O)O)ccc3[nH]2)cc1 [1(1), 2-(4-amidino-phenyl)-5(6)-[(2-carboxy-ethyl)-carbonyl-amino]-benzimidazole]		6600 nM	600 nM	
CCCCCCCCCCCCCCn1c(-c2ccc(C(=N)N)cc2)nc2cc(C(=O)NCCC(=O)O)ccc21 [17(6), 2-(4-amidino-phenyl)-5-[(2-carboxy-ethyl)-aminocarbonyl]-1-n-tetradecyl-benzimidazole-dihydrobromide]		30000 nM		1800 nM
N=C(N)c1ccc(-c2nc3cc(C(=O)NCCC(=O)O)ccc3n2CCCN2CCSCC2)cc1 [1(73), 2-(4-amidino-phenyl)-5-[(2-carboxy-ethyl)-aminocarbonyl]-1-(3-thiomorpholino-propyl)-benzimidazole]		160 nM		49 nM
COC(=O)CCNC(=O)c1ccc2[nH]c(-c3ccc(C(=N)N)cc3)nc2c1 [15(1), 2-(4-amidino-phenyl)-5(6)-[(2-methoxycarbonyl-ethyl)-aminocarbonyl]-benzimidazole-hydrochloride]		4100 nM		2500 nM
COc1ccc(CCn2c(-c3ccc(C(=N)N)cc3)nc3cc(C(=O)NCCC(=O)O)ccc32)cc1OC [17(2), 2-(4-amidino-phenyl)-5-[(2-carboxy-ethyl)-aminocarbonyl]-1-[2-(3,4-dimethoxy-phenyl)-ethyl]-benzimidazole-dihydrobromide]		80 nM		22 nM
CCCCCCCCCCCCCCn1c(-c2ccc(CN)cc2)nc2cc(C(=O)NCCC(=O)O)ccc21 [17(4), 2-(4-aminomethyl-phenyl)-5-[(2-carboxy-ethyl)-aminocarbonyl]-1-n-tetradecyl-benzimidazole-dihydrobromide]		> 100000 nM		1900 nM
COC(=O)CCNC(=O)c1ccc2c(c1)nc(-c1ccc(C(=N)N)cc1)n2CCCCc1ccccc1 [3(122), 2-(4-amidino-phenyl)-5-[(2-methoxycarbonyl-ethyl)-aminocarbonyl]-1-(4-phenyl-butyl)-benzimidazole]		8600 nM		4000 nM
N=C(N)c1ccc(-c2nc3cc(C(=O)NCCC(=O)O)ccc3n2CCCN2CCS(=O)(=O)CC2)cc1 [1(75), 2-(4-amidino-phenyl)-5-[(2-carboxy-ethyl)-aminocarbonyl]-1-[3-(S,S-dioxido-thiomorpholino)-propyl]-benzimidazole]		1100 nM		230 nM
Cn1c(-c2ccc(CN)cc2)nc2cc(C(=O)NCCC(=O)O)ccc21 [17(1), 2-(4-aminomethyl-phenyl)-5-[(2-carboxy-ethyl)-aminocarbonyl]-1-methyl-benzimidazole-dihydrobromide]		1530 nM	700 nM	
N=C(N)c1ccc(-c2nc3cc(C(=O)NCCC(=O)O)ccc3n2CCc2cc(Br)c(N)c(Br)c2)cc1 [17(8), 2-(4-amidino-phenyl)-1-[2-(4-amino-3,5-dibromo-phenyl)-ethyl]-5-[(2-carboxy-ethyl)-aminocarbonyl]-benzimidazole-dihydrobromide]		350 nM		47 nM
Cn1c(-c2ccc(C(=N)N)cc2)nc2cc(C(=O)NCCC(=O)O)cnc21 [17(13), 2-(4-amidino-phenyl)-6-[(2-carboxy-ethyl)-aminocarbonyl]-3-methyl-imidazo[4,5-b]pyridine-dihydrobromide]		40 nM		20 nM
N=C(N)c1ccc(-c2nc3cc(C(=O)NCCC(=O)O)ccc3n2CCN2CCN(Cc3ccccc3)CC2)cc1 [1(136), 2-(4-amidino-phenyl)-1-[2-(4-benzyl-piperazino)-ethyl]-5-[(2-carboxy-ethyl)-aminocarbonyl]-benzimidazole]		80 nM	30 nM	
COC(=O)CCNC(=O)c1cnc2c(c1)nc(-c1ccc(C(=N)N)cc1)n2C [3(19), 2-(4-amidino-phenyl)-6-[(2-methoxycarbonyl-ethyl)-aminocarbonyl]-3-methyl-imidazo[4,5-b]pyridine]		330 nM		280 nM
N=C(N)c1ccc(-c2nc3cc(C(=O)NCCC(=O)O)ccc3n2Cc2cccnc2)cc1 [17(3), 2-(4-amidino-phenyl)-5-[(2-carboxy-ethyl)-aminocarbonyl]-1-(3-pyridylmethyl)-benzimidazole-dihydrobromide]		430 nM		170 nM
COC(=O)CCNC(=O)c1ccc2c(c1)nc(-c1ccc(C(=N)N)cc1)n2CCCN1CCS(=O)(=O)CC1 [5(6), 2-(4-amidino-phenyl)-1-[3-(S,S-dioxido-thiomorpholino)-propyl]-5-[(2-methoxycarbonyl-ethyl)-aminocarbonyl]-benzimidazole-hydrochloride]		18000 nM		5500 nM
COC(=O)CCNC(=O)c1ccc2c(c1)nc(-c1ccc(C(=N)N)cc1)n2Cc1cccnc1 [3(52), 2-(4-amidino-phenyl)-5-[(2-methoxycarbonyl-ethyl)-aminocarbonyl]-1-(3-pyridylmethyl)-benzimidazole]		9500 nM		4800 nM
COC(=O)CCCn1c(-c2ccc(C(=N)N)cc2)nc2cc(C(=O)NCCC(=O)OC)ccc21 [3(120), 2-(4-amidino-phenyl)-5-[(2-methoxycarbonyl-ethyl)-aminocarbonyl]-1-(3-methoxycarbonyl-propyl)-benzimidazole-hydrochloride]		2000 nM		1300 nM
